Data taken from article PMC3685705, “Antimicrobial and antiurease activities of newly synthesized morpholine derivatives containing an azole nucleus” (Medicinal Chemistry Research, 2012).
Converted amounts (≈) assume the structure as drawn. Like-named read-outs stand apart in the source and are kept apart here.

Tests used:
[1] = biological target: urease (Canavalia ensiformis, UniProt P07374); assay: Urease inhibitory activity (Van Slyke and Archibald)
[2] = tested on: Candida albicans ATCC 60193; assay: Antifungal activity, broth double microdilution MIC; assay type: cell-based
[3] = tested on: S. cerevisiae RSKK 251; assay: as above; assay type: cell-based; conditions: Saccharomyces cerevisiae
[4] = tested on: Mycobacterium smegmatis ATCC 607; assay: Antimicrobial activity, broth double microdilution MIC; assay type: cell-based; conditions: Mycolicibacterium smegmatis
[5] = tested on: all the microorganisms; assay: Antimicrobial activity in vitro, whole panel; assay type: cell-based; conditions: result in words
[6] = tested on: Enterococcus faecalis ATCC 29212; assay: Antimicrobial activity, broth double microdilution MIC; assay type: cell-based; conditions: ATCC29212, Mueller–Hinton broth pH 7.3, 18–24 h at 35 °C, – = no activity, read-out: minimal inhibition concentration, Ef
[7] = tested on: Pseudomonas aeruginosa ATCC 43288; assay: as above; assay type: cell-based; conditions: ATCC43288, Mueller–Hinton broth pH 7.3, 18–24 h at 35 °C, – = no activity, read-out: minimal inhibition concentration, Pa
[8] = tested on: Staphylococcus aureus ATCC 25923; assay: as above; assay type: cell-based; conditions: ATCC25923, Mueller–Hinton broth pH 7.3, 18–24 h at 35 °C, – = no activity, read-out: minimal inhibition concentration, Sa
[9] = tested on: Yersinia pseudotuberculosis ATCC 911; assay: microbe, parasite or virus in culture; assay type: cell-based; conditions: ATCC911, pH 7.3, read-out: minimal inhibition concentration, Yp
[10] = tested on: Bacillus cereus 702 Roma; assay: Antimicrobial activity, broth double microdilution MIC; assay type: cell-based; conditions: pH 7.3, read-out: minimal inhibition concentration, Bc
[11] = tested on: Escherichia coli ATCC 25922; assay: as above; assay type: cell-based; conditions: ATCC25922, pH 7.3, read-out: minimal inhibition concentration, Ec
[12] = Candida albicans, ATCC60193, pH 7, read-out: minimal inhibition concentration, Ca
[13] = RSKK251, pH 7, read-out: minimal inhibition concentration, Sc
[14] = ATCC607, read-out: minimal inhibition concentration, Ms

Sequence of urease (P07374 whole entry, looked up): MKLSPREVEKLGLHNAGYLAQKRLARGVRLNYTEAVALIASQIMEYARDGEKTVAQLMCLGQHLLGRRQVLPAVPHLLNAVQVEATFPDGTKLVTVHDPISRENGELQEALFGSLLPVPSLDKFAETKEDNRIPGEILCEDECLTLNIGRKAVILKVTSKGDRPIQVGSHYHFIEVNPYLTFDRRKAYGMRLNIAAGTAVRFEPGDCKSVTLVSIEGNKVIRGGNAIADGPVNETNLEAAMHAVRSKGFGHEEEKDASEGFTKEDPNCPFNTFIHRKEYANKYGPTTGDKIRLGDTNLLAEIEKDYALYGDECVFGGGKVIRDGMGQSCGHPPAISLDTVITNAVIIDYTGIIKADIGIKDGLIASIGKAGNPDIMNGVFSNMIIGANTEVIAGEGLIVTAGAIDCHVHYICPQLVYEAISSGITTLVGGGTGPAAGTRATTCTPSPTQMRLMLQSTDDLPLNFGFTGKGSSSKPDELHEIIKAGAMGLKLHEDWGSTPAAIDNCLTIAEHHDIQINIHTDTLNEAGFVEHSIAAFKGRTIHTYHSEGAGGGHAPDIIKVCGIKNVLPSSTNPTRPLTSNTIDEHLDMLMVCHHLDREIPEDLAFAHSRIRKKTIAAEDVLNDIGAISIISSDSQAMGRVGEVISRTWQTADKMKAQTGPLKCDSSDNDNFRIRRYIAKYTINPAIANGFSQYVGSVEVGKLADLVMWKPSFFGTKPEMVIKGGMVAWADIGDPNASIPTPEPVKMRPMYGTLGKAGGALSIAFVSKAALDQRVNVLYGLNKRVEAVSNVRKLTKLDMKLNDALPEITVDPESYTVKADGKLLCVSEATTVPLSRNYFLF

Work on `O=C(CNc1ccc(N2CCOCC2)nc1)N/N=C/C=C/c1ccccc1` [Compound 6, 2-{[6-(Morpholin-4-yl)pyridin-3-yl]amino}-N-(3-phenylallylidene)acetohydrazide] yielded a melting point of 194 to 195 °C, an IC50 [1] of 8.29 ± 2.3 µM and an MIC [2, 12] of 500 µg/mL (≈ 1370 µM). It also gave an MIC [3, 13] of 1000 µg/mL (≈ 2740 µM).

`CCOC(=O)CNc1ccc(N2CCOCC2)nc1` [Compound 3, Ethyl N-(6-morpholin-4-ylpyridin-3-yl)glycinate] gave a melting point of 83 to 84 °C, an IC50 [1] of 13.2 ± 2.25 µM and an MIC [2, 12] of 1000 µg/mL (≈ 3770 µM). For the same compound, the MIC [4, 14] was 125 µg/mL (≈ 471 µM) and the MIC [3, 13] was 1000 µg/mL (≈ 3770 µM).

Compound `O=C(CNc1ccc(N2CCOCC2)nc1)N/N=C1\SCC(=O)N1c1ccccc1` [Compound 13, 2-[(6-Morpholin-4-ylpyridin-3-yl)amino]-N’-(4-oxo-3-phenyl-1,3-thiazolidin-2-ylidene)acetohydrazide] has a melting point of 201 to 202 °C, an IC50 [1] of 4.46 ± 0.22 µM and an MIC [2, 12] of 500 µg/mL (≈ 1170 µM). The MIC [3, 13] was 1000 µg/mL (≈ 2340 µM).

For `S=c1oc(CNc2ccc(N3CCOCC3)nc2)nn1CN1CCN(c2ccccc2)CC1` [Compound 8, 5-{[(6-Morpholin-4-ylpyridin-3-yl)amino]methyl}-3-[(4-phenylpiperazin-1-yl)methyl]-1,3,4-oxadiazole-2(3H)-thione], the “antimicrobial activity against all the microorganisms” value [5] was “active against all the microorganisms”, the MIC [6] was 31.3 µg/mL (≈ 66.9 µM) and the melting point was 87 to 88 °C. It also gave an MIC [7] of 62.5 µg/mL (≈ 134 µM), an MIC [8] of 31.3 µg/mL (≈ 66.9 µM) and an MIC [9] of 62.5 µg/mL (≈ 134 µM). It also gave an IC50 [1] of 4.99 ± 0.59 µM, an MIC [2, 12] of 1000 µg/mL (≈ 2140 µM) and an MIC [4, 14] of 125 µg/mL (≈ 267 µM). It also gave an MIC [10] of 62.5 µg/mL (≈ 134 µM), an MIC [3, 13] of 1000 µg/mL (≈ 2140 µM) and an MIC [11] of 62.5 µg/mL (≈ 134 µM).

Compound `CC1(C)S[C@@H]2[C@H](NC(=O)[C@H](N)c3ccccc3)C(=O)N2[C@H]1C(=O)O` [Amp., Ampicillin, reference compound] has an MIC [6] of 2 µg/mL (≈ 5.72 µM), an MIC [7] of over 128 µg/mL and an MIC [8] of 2 µg/mL (≈ 5.72 µM). The MIC [9] was 32 µg/mL (≈ 91.6 µM), the MIC [10] was under 1 µg/mL and the MIC [11] was 8 µg/mL (≈ 22.9 µM).

Work on `Sc1nnc(CNc2ccc(N3CCOCC3)nc2)o1` [Compound 7, 5-{[(6-Morpholin-4-ylpyridin-3-yl)amino]methyl}-1,3,4-oxadiazole-2-thiol] yielded a melting point of 221 to 222 °C, an IC50 [1] of 7.01 ± 0.68 µM and an MIC [2, 12] of 500 µg/mL (≈ 1700 µM). It also gave an MIC [3, 13] of 1000 µg/mL (≈ 3410 µM).

`OC(Cn1cncn1)(Cn1cncn1)c1ccc(F)cc1F` [Flu., Fluconazole, reference compound] showed an MIC ([2]; ATCC60193, Candida albicans ATCC 60193, buffered Yeast Nitrogen Base pH 7.0, 18–24 h at 35 °C, read-out: minimal inhibition concentration, Ca) of under 8 µg/mL and an MIC ([3]; RSKK251, S. cerevisiae RSKK 251, buffered Yeast Nitrogen Base pH 7.0, 18–24 h at 35 °C, read-out: minimal inhibition concentration, Sc) of under 8 µg/mL.

`O=C(CNc1ccc(N2CCOCC2)nc1)N/N=C/c1ccc(Br)cc1` [Compound 5, N-(4-Bromobenzylidene)-2-[6-(morpholin-4-yl)pyridin-3-ylamino]acetohydrazide] showed a melting point of 163 to 164 °C, an IC50 [1] of 6.87 ± 0.06 µM and an MIC [2, 12] of 1000 µg/mL (≈ 2390 µM). The MIC [4, 14] was 31.3 µg/mL (≈ 74.8 µM) and the MIC [3, 13] was 1000 µg/mL (≈ 2390 µM).

In the case of `Sc1nnc(CNc2ccc(N3CCOCC3)nc2)n1-c1ccccc1` [Compound 11], the melting point is reported as 165 to 166 °C.

`O=C(CNc1ccc(N2CCOCC2)nc1)NNC(=S)Nc1ccccc1` [Compound 9, 2-{[(6-Morpholin-4-ylpyridin-3-yl)amino]acetyl}-N-phenylhydrazinecarbothioamide] showed a melting point of 171 to 172 °C, an IC50 [1] of 8.07 ± 1.25 µM and an MIC [2, 12] of 1000 µg/mL (≈ 2590 µM). For the same compound, the MIC [4, 14] was 125 µg/mL (≈ 323 µM) and the MIC [3, 13] was 1000 µg/mL (≈ 2590 µM).

Work on `O=C(CNc1ccc(N2CCOCC2)nc1)N/N=c1\sc(-c2ccc(Cl)cc2)cn1-c1ccccc1` [Compound 10] yielded a melting point of 168 to 169 °C, an IC50 [1] of 2.37 ± 0.19 µM and an MIC [2, 12] of 500 µg/mL (≈ 960 µM). The MIC [3, 13] was 1000 µg/mL (≈ 1920 µM).

For `NNC(=O)CNc1ccc(N2CCOCC2)nc1` [Compound 4, 2-[6-(Morpholin-4-yl)pyridin-3-ylamino]acetohydrazide], the melting point was 175 to 177 °C, the IC50 [1] was 7.92 ± 1.43 µM and the MIC [2, 12] was 500 µg/mL (≈ 1990 µM). The MIC [4, 14] was 125 µg/mL (≈ 497 µM) and the MIC [3, 13] was 1000 µg/mL (≈ 3980 µM).

Compound `CN[C@@H]1[C@H](O[C@H]2[C@H](O[C@H]3[C@H](O)[C@@H](O)[C@H](N=C(N)N)[C@@H](O)[C@@H]3N=C(N)N)O[C@@H](C)[C@]2(O)C=O)O[C@@H](CO)[C@H](O)[C@H]1O` [Str., Streptomisin, reference compound] has an MIC ([4]; ATCC607, Mycobacterium smegmatis ATCC 607, Brain Heart Infusion broth, 48–72 h at 35 °C, – = no activity, read-out: minimal inhibition concentration, Ms) of 4 µg/mL (≈ 6.88 µM).

Compound `c1ccc(Nc2nnc(CNc3ccc(N4CCOCC4)nc3)s2)cc1` [Compound 12] has a melting point of 172 to 173 °C.
